The values below come from US20230233583A1, “USE OF PHYTOCANNABINOIDS FOR TREATING MULTIPLE MYELOMA” (priority 2020, published 2023).

By IC50 is commonly meant the point on the concentration scale where inhibition reaches its midpoint. By viability is commonly meant a read-out of living cells in per cent, often relative to untreated cells.

Data set [1] relates to U266. The data set can be described thus: MTT cytotoxicity assay in U266 MM cell line. The note with it: for IC50: Homo sapiens, U-266, 72 h, read-out: IC50 (μM) ± S.D.; for % VIABILITY ± S.D.: daily, 72 hours, vs vehicle. The protocol: (§1) MTT cytotoxicity assay: MM cell lines (4×10^4 cells/ml) were seeded in 96-well plates, in a final volume of 100 μl/well. After 24 hours, CBG, CBC, CBN, CBDV alone and in combination or vehicle were added at different concentrations, for 72 hours. At least six replicates were used for each treatment. At the indicated time point, cell viability was assessed by adding 0.8 mg/ml of 3-[4,5-dimethylthiazol-2-yl]-2,5 diphenyl tetrazolium bromide (MTT) (Sigma-Aldrich) to the media. After 3 hours, the plates were centrifuged, the supernatant was removed, and the pellet was solubilized with 100 μl/well dimethyl sulfoxide (DMSO). The absorbance of the samples against a background control (medium alone) was measured at 570 nm using an ELISA reader microliter plate (BioTek™ Instruments, Winooski, Vt., USA).
(§2) Cells were treated with different doses of CBG, CBC, CBN and CBDV (up to 100 μM) and percentage of cell viability was evaluated by the MTT assay.
(§3) The cannabinoids were administered daily for 72 hours, as in previous experiments at the desired doses. Each combination was evaluated in six wells and in two separate experiments. MTT assay was used to analyze the cell cytotoxicity. The values in the tables are represented as % of cell viability compared to vehicle-treated cells.

Data set [2] relates to SKO. The experiment in a line: MTT cytotoxicity assay in SKO MM cell line. The settings on record: for IC50: Homo sapiens, 72 h, read-out: IC50 (μM) ± S.D.; for % VIABILITY ± S.D.: SKO, daily, 72 hours, vs vehicle. The protocol:
as §1, §2, §3

A short description of data set [3]: in vitro. It is filed as cell-based, human. The settings on record: human, HuOB, daily, 72 hours, vs vehicle, read-out: % VIABILITY ± S.D.; for viability at 72 h, 12.5 μM: single phytocannabinoid 12.5 μM; for viability at 72 h, 25 μM: single phytocannabinoid 25 μM. The protocol: (§4) At least six replicates were used for each treatment.
(§5) Cell culture: The HuOB, an immortalized human osteoblast cell line derived from femoral head (INS-CI-1005, Inscreeex GmbH, Germany) was grown in HuOB Maintenance Medium (INS-ME-1006).
(§6) IC50 values, relative to daily administration, were obtained. The efficacy in reducing cell viability was generally highest for CBDV, followed by CBN, CBC and CBG.
(§7) Phytocannabinoid combinations in HuOB cell line viability: Before setting up the co-culture experiments with HuOB and MM cell lines, the less cytotoxic doses of phytocannabinoid combinations were evaluated in HuOB. […] The standard deviation of the data reported was <10%. […] Additionally, a triple combination with CBG, CBC and CBN at 12.5 μM for each phytocannabinoid, was performed (Table 9).

For data set [4], the system named is HuOB cell line. The data set can be described thus: cells. Type of data set: cell-based, human. The note with it: for IC50: Homo sapiens, 72 h, read-out: IC50 (μM) ± S.D. How it is done: as §4, §5, §6, §7
Data set [5] relates to U266. The data set can be described thus: Invasion assay in co-culture of HuOB and U266. The note with it: 24 hours; for AVERAGE OF CELLS/square (MM cells that invaded the Matrigel): U266 + HuOB co-culture, CBG, CBC, CBN 12.5 μM, CBDV 6.25 μM or 25 μM and 12.5 μM, untreated U266 + HuOB 14.2 ± 0.9; for effect on MM cell invasion, in words: U266 in co-culture with HuOB. Type of data set: cell-based, human. The protocol: Invasion assay: HuOB cells (1.5×10^4) were plated on the surface of Matrigel in a BioCoat™ Matrigel® Invasion Chamber, 8.0 μm PET Membrane (Coming®, cod. 354480) and incubated for two days. After, U266 and RPMI (2.5×10^4) were pre-stained with Calcein (1 μM) for two hours, then treated with CBG (12.5 μM), CBC (12.5 μM), CBN (12.5 μM) and CBDV (6.25 μM) and added in the chambers. MM cells with HuOB, untreated, were used as invasion positive control, MM cells without HuOB cells were used as negative control. After 24 hours, the number of MM cells that invaded the Matrigel were analysed via fluorescent microscope. Eight 10× sections images were counted for each chamber.
Invasion assay in co-culture of HuOB and MM cell lines: This study evaluated the effect of phytocannabinoids in reducing the invasion of MM cell lines toward HuOB. HuOB were plated on the surface of Matrigel in the BioCoat™ Matrigel® Invasion Chamber, 8.0 μm PET Membrane (Corning®, cod. 354480) and incubated for two days. After, U266 or RPMI were pre-stained with Calcein (10 μM) for two hours, then treated with CBG (25 μM), CBC (25 μM), CBN (25 μM) and CBDV (12.5 μM) and added in the chambers. MM cells with HuOB, untreated, were used as an invasion positive control, MM cells without HuOB cells were used as a negative control. After 24 hours, the number of MM cells that invaded the Matrigel were analysed via fluorescent microscope. Eight 10× sections images were counted for each chamber.

The subject of data set [6] is MM cell lines U266, SKO and RPMI. The experiment in a line: Annexin-V/PI staining, FACS analysis. It is filed as cell-based, human. The settings on record: 48 hours, daily, CBG, CBN, CBDV 25 μM, CBC 75 μM. How it is done: Cell lines were treated for 48 hours with CBG (25 μM), CBN (25 μM), CBDV (25 μM) or CBC (75 μM) and the percentage of Annexin-V/PI positive cells were determined by FACS analysis. Values in overlays on each plot: upper left=necrotic cells; upper right=late death cells (both apoptotic and necrotic); lower left=live cells; and lower right=apoptotic cells. Data for each phytocannabinoid (lower plots in each Figure) expressed as percentage of PI positive cells with respect to vehicle treated cells (upper plots in each Figure).
Apoptosis assays and PI staining: Cell death was evaluated using the Annexin V-FITC Apoptosis detection Kit (eBioscience) followed by biparametric fluorescence-activated cell sorting (FACS) analysis. Cells, at a density of 4×10^4 cells/ml, were treated with CBG, CBC, CBN or CBDV for a maximum of 48 hours, with daily administration, and then incubated with Annexin V-FITC and propidium iodide (PI), following the protocol provided. The percentage of positive cells determined over 10,000 events was analysed on a FACScan cytofluorimeter using the CellQuest software.
Phytocannabinoids induce necrotic cell death in MM cell lines: To evaluate the cytotoxic mechanism induced by the phytocannabinoids, MM cell lines were treated daily with a cytotoxic dose for each phytocannabinoid (CBG: 25 μM; CBC 75 μM; CBN 25 μM; CBDV 25 μM) for 48 hours and then Annexin-V/PI cell positivity was evaluated by FACS analysis. The results evidenced that all of the phytocannabinoids induced necrotic cell death but had different efficacies (FIGS. 5-16). To confirm the necrotic cell death mechanism, MM cell lines were treated as above and DNA damage was evaluated by H2AX (a marker to examine the DNA damage produced and the subsequent repair of the DNA lesion) Western blot analysis and Comet assay (permits the analysis of DNA damage in single cell preparations). The result confirmed the DNA damage induced by the phytocannabinoid analysed. In particular, an increase of H2AX levels were observed by Western blot (FIGS. 17-20) and DNA damage by Comet assay that evidenced structures resembling comets in the treated cell lines (FIGS. 21-24).
For orientation: Flow cytometry measures light scatter and fluorescence of single cells or particles in a stream.

The mark [7] stands for this setting: U266, single phytocannabinoid 12.5 μM.
[8] abbreviates: U266, single phytocannabinoid 25 μM.
The mark [9] stands for this setting: single phytocannabinoid 12.5 μM.

For `CCCCCc1cc(O)c(C/C=C(\C)CCC=C(C)C)c(O)c1` [CBG, 2-[(2E)-3,7-dimethylocta-2,6-dienyl]-5-pentylbenzene-1,3-diol], the IC50 came out at 35.9 ± 2.2 µM in data set [1], 35 ± 1.8 µM in data set [2] and 44.8 ± 1.04 µM in data set [4]. The “% VIABILITY ± S.D.” value came out at 97.4 ± 6.5% in data set [1] (setting [7]), 87.7 ± 5.8% in data set [1] (setting [8]), 105.4 ± 4.4% in data set [2] (setting [9]) and 84.6 ± 5.5% in data set [2] (single phytocannabinoid 25 μM). The viability at 72 h, 12.5 μM in data set [3] was 104 ± 8.2%. Also, the viability at 72 h, 25 μM in data set [3] was 96.4 ± 7.3%. Further, the “AVERAGE OF CELLS/square (MM cells that invaded the Matrigel)” value (from here on “AVERAGE OF CELLS/square”) in data set [5] is 3.2 ± 0.2 CELLS/square. The “effect on MM cell invasion, in words” value in data set [5] is given as “higher activity”. Besides, the “necrotic cell death (Annexin-V/PI positive cells), in words” value (“necrotic cell death” below) in data set [6] is reported as “induce necrosis”.
As to `CCCCCc1cc(O)c2c(c1)OC(C)(C)c1ccc(C)cc1-2` [CBN, 6,6,9-trimethyl-3-pentylbenzo[c]chromen-1-ol], the results for the half-maximal inhibitory concentration (IC50) in data set [1], in data set [2] and in data set [4] were 26.5 ± 1.8 µM, 28.5 ± 2.2 µM and 29 ± 3.07 µM, respectively. The “% VIABILITY ± S.D.” value was 89.6 ± 6.6% in data set [1] (setting [7]), 61.1 ± 4.8% in data set [1] (setting [8]), 89.2 ± 5.9% in data set [2] (setting [9]) and 60.6 ± 3.8% in data set [2] (single phytocannabinoid 25 μM). The viability at 72 h, 12.5 μM in data set [3] is 117 ± 7.7%. Moreover, the viability at 72 h, 25 μM in data set [3] amounted to 81.7 ± 7.7%. Also, the “AVERAGE OF CELLS/square” value in data set [5] is 7.0 ± 0.2 CELLS/square. Further, the “effect on MM cell invasion, in words” value in data set [5] was “higher activity”. Also, the “necrotic cell death” value in data set [6] is “induce necrosis”.
Turning to `C=C(C)[C@@H]1CCC(C)=C[C@H]1c1c(O)cc(CCC)cc1O` [CBDV, 2-[(1R,6R)-3-methyl-6-prop-1-en-2-ylcyclohex-2-en-1-yl]-5-propylbenzene-1,3-diol], the figures for the IC50 in data set [1], in data set [2] and in data set [4] were 26.7 ± 1.3 µM, 26.5 ± 2.1 µM and 14.3 ± 1 µM, respectively. For the same molecule, the “% VIABILITY ± S.D.” value in data set [1] (setting [7]) is given as 88.6 ± 7.2%; in data set [1] (setting [8]), 76.2 ± 6.5%; in data set [2] (setting [9]), 82.1 ± 5.2%; in data set [2] (single phytocannabinoid 25 μM) it was 54.6 ± 4.4%. Further, the viability at 72 h, 12.5 μM in data set [3] was 72.1 ± 5.8%. Besides, in data set [3], the viability at 72 h, 25 μM was 21.2 ± 1.1%. Moreover, the “cytotoxicity in HuOB cell line, in words” value in data set [4] (HuOB, 72 hours, daily administration) is recorded as “high cytotoxicity”. The “AVERAGE OF CELLS/square” value in data set [5] stood at 11.2 ± 1.1 CELLS/square. For the same molecule, in data set [6], the “necrotic cell death” value is “induce necrosis”.
On to `CCCCCc1cc(O)c2c(c1)OC(C)(CCC=C(C)C)C=C2` (centres unmarked) [CBC, 2-methyl-2-(4-methylpent-3-enyl)-7-pentylchromen-5-ol], for which the IC50 in data set [1] worked out at 78.8 ± 3.4 µM; in data set [2] it was 69.7 ± 3.5 µM; in data set [4], 42.4 ± 1.05 µM. In addition, the “% VIABILITY ± S.D.” value in data set [1] (setting [7]) is recorded as 106.2 ± 3.5%; in data set [1] (setting [8]), 101.2 ± 7.2%; in data set [2] (setting [9]) it was 96.5 ± 6.7%; in data set [2] (single phytocannabinoid 25 μM) it was 94.3 ± 6.3%. Besides, in data set [3], the viability at 72 h, 12.5 μM amounted to 100 ± 8.3%. Further, the viability at 72 h, 25 μM in data set [3] came out at 99.8 ± 8.1%. Further, the “AVERAGE OF CELLS/square” value in data set [5] is given as 12.5 ± 1.1 CELLS/square. Further, in data set [6], the “necrotic cell death” value is “induce necrosis”.
